Results published in ChEMBL document CHEMBL3526131, “Involvement of organic anion-transporting polypeptides in the hepatic uptake of dioscin in rats and humans” (Drug Metab Dispos, 2013).
pKi: −log10 of the molar value.

How the values were obtained:
Hepatocyte [1] = experiment: Cellular uptake in Wistar rat hepatocytes at 5 uM after 2 mins; assay type: ADME, cell-based
Liver [2] = experiment: Drug uptake in Wistar rat liver at 5 uM after 1 to 30 mins by LC-MS/MS analysis in presence of digoxin; assay type: ADME, tissue-based; settings: in vivo
Hepatocyte [3] = experiment: Cellular uptake in Wistar rat hepatocytes at 2.5 uM in presence of PAH; assay type: ADME, cell-based
[4] = Drug uptake in MDCK2 cells expressing OATP1B1/MRP2 (unknown origin) at 2.5 uM after 30 to 180 mins by LC-MS/MS analysis; assay type: ADME, cell-based, Canis lupus familiaris; settings: dog, mdck-ii
Liver [5] = experiment: Drug uptake in Wistar rat liver at 2.5 uM after 30 mins; assay type: ADME, tissue-based; settings: in vivo, 0.5 h
Hepatocyte [6] = experiment: Cellular uptake in Wistar rat hepatocytes at 2.5 uM in presence of Na+; assay type: ADME, cell-based
[7] = Clearance in human hepatocytes assessed per 10^6 cells; assay type: ADME, cell-based, Hepatocyte; settings: read-out: CLH
OATP1B3 = molecular target: T1, OATP1B3 (Homo sapiens, UniProt Q9NPD5); experiment: (§1) Activity at OATP1B3 (unknown origin) expressed in HEK293 cells assessed as compound transport; assay type: ADME, cell-based; settings: HEK293 cells expressing OATP1B3
T1 sequence (Q9NPD5 whole entry): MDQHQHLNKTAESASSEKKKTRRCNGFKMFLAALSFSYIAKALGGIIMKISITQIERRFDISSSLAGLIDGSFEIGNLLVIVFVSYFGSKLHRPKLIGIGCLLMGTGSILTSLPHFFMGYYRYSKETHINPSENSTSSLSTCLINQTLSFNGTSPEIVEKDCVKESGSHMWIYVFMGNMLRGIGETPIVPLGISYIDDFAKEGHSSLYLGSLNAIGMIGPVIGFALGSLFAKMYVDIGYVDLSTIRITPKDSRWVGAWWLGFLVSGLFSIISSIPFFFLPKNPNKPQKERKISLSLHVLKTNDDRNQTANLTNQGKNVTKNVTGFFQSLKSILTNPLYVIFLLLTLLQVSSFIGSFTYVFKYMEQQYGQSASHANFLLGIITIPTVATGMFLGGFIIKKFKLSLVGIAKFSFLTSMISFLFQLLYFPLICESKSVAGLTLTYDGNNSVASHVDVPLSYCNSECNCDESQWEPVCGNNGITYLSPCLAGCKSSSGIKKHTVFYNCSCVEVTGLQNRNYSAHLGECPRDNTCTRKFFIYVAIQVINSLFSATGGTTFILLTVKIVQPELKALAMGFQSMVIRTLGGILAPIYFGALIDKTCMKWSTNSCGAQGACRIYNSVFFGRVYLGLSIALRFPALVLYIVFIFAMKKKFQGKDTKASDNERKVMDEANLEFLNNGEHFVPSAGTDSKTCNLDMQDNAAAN

[8] = molecular target: T2, Solute carrier organic anion transporter family member 1B3 (Homo sapiens, UniProt Q9NPD5); experiment: as §1; assay type: ADME, cell-based; settings: hek293
T2 sequence (Q9NPD5 whole entry): T1 sequence (Q9NPD5 whole entry)

Liver [9] = experiment: Drug uptake in Wistar rat liver at 5 uM after 1 to 30 mins by LC-MS/MS analysis in presence of glycyrrhizic acid; assay type: ADME, tissue-based; settings: in vivo
Liver [10] = experiment: Drug uptake in Wistar rat liver at 5 uM after 1 to 30 mins by LC-MS/MS analysis in presence of PAH; assay type: ADME, tissue-based; settings: in vivo
[11] = Intrinsic clearance in human; assay type: ADME, organism-based; settings: in vivo
[12] = molecular target: T2, Solute carrier organic anion transporter family member 1B3; experiment: Cellular uptake in HEK293 cells expressing OATP1B3 (unknown origin) assessed as inhibition of telmisartan-mediated drug transport; assay type: ADME, cell-based
Hepatocyte [13] = experiment: Cellular uptake in Wistar rat hepatocytes at 2.5 uM in presence of ibuprofen; assay type: ADME, cell-based
Hepatocyte [14] = experiment: Cellular uptake in Wistar rat hepatocytes at 2.5 uM in presence of K+; assay type: ADME, cell-based
Liver [15] = experiment: Drug uptake in Wistar rat liver at 5 uM after 1 to 30 mins by LC-MS/MS analysis in presence of rifampicin; assay type: ADME, tissue-based; settings: in vivo
[16] = Drug uptake in Wistar rat liver assessed as hepatic extraction ratio at 2.5 uM after 1 to 60 mins in presence of cyclosporin A; assay type: ADME, tissue-based; settings: with cyclosporin A, read-out: ERH
[17] = Drug uptake in Wistar rat liver assessed as hepatic extraction ratio at 2.5 uM after 1 to 60 mins; assay type: ADME, tissue-based; settings: read-out: ERH
Hepatocyte [18] = experiment: Cellular uptake in Wistar rat hepatocytes at 2.5 uM in presence of digoxin; assay type: ADME, cell-based
Hepatocyte [19] = experiment: Cellular uptake in Wistar rat hepatocytes at 2.5 uM in presence of cyclosporin A; assay type: ADME, cell-based
Liver [20] = experiment: Drug uptake in Wistar rat liver at 5 uM after 1 to 30 mins by LC-MS/MS analysis in presence of TEA; assay type: ADME, tissue-based; settings: in vivo
[21] = Fraction unbound in Wistar rat blood; assay type: ADME, tissue-based
[22] = Fraction unbound in Wistar rat plasma at 2.5 uM by LC-MS/MS analysis; assay type: ADME, cell-free
[23] = Drug uptake in MDCK2 cells expressing OATP1B1 (unknown origin) at 2.5 uM after 30 to 180 mins by LC-MS/MS analysis; assay type: ADME, cell-based, Canis lupus familiaris; settings: dog, mdck-ii
Hepatocyte [24] = experiment: Cellular uptake in Wistar rat hepatocytes assessed as rate of drug transport per 10^6 cells at 0.2 to 2.5 uM; assay type: ADME, cell-based
Liver [25] = experiment: Drug uptake in Wistar rat liver assessed as liver uptake index at 0.2 mg/kg, iv in presence of rifampicin; assay type: ADME, organism-based; parameters: dose 0.2 mg/kg, route intravenous; settings: in vivo
[26] = molecular target: T2, Solute carrier organic anion transporter family member 1B3; experiment: Cellular uptake in HEK293 cells expressing OATP1B3 (unknown origin) assessed as inhibition of cyclosporin A-mediated drug transport; assay type: ADME, cell-based
[27] = Drug uptake in MDCK2 cells at 2.5 uM after 30 to 180 mins by LC-MS/MS analysis; assay type: ADME, cell-based, Canis lupus familiaris; settings: dog, mdck-ii
Hepatocyte [28] = experiment: Cellular uptake in Wistar rat hepatocytes at 2.5 uM after 2 mins; assay type: ADME, cell-based
[29] = molecular target: T2, Solute carrier organic anion transporter family member 1B3; experiment: Cellular uptake in HEK293 cells expressing OATP1B3 (unknown origin) assessed as inhibition of (-)-epigallocatechin gallate-mediated drug transport; assay type: ADME, cell-based
[30] = molecular target: T2, Solute carrier organic anion transporter family member 1B3; experiment: Cellular uptake in HEK293 cells expressing OATP1B3 (unknown origin) assessed as inhibition of rifampicin-mediated drug transport; assay type: ADME, cell-based
[31] = Drug uptake in Wistar rat liver assessed as hepatic extraction ratio at 2.5 uM after 1 to 60 mins in presence of rifampicin; assay type: ADME, tissue-based; settings: with rifampicin, read-out: ERH
[32] = Plasma clearance in Wistar rat; assay type: ADME, organism-based
[33] = Ratio of drug level in blood to plasma in Wistar rat at 2.5 uM after 5 mins by LC-MS/MS analysis; assay type: ADME
Liver [34] = experiment: Drug uptake in Wistar rat liver at 5 uM after 15 mins by LC-MS/MS analysis; assay type: ADME, tissue-based; settings: in vivo, 0.25 h
HEK293 = experiment: Cellular uptake in HEK293 cells at 2.5 uM after 1 min; assay type: ADME, cell-based; settings: human, hek293, 1 min
Hepatocyte [35] = experiment: Cellular uptake in Wistar rat hepatocytes at 2.5 uM in presence of glycyrrhizic acid; assay type: ADME, cell-based
[36] = Cellular uptake in Wistar rat hepatocytes at 0.2 to 2.5 uM; assay type: ADME, cell-based, Hepatocyte
Hepatocyte [37] = experiment: Cellular uptake in Wistar rat hepatocytes at 2.5 uM in presence of rifampicin; assay type: ADME, cell-based
Liver [38] = experiment: Drug uptake in Wistar rat liver assessed as liver uptake index at 0.2 mg/kg, iv; assay type: ADME, organism-based; parameters: dose 0.2 mg/kg, route intravenous; settings: in vivo
Liver [39] = experiment: Drug uptake in Wistar rat liver at 5 uM after 1 to 30 mins by LC-MS/MS analysis in presence of ibuprofen; assay type: ADME, tissue-based; settings: in vivo
Liver [40] = experiment: Drug uptake in Wistar rat liver at 5 uM after 1 to 30 mins by LC-MS/MS analysis in presence of cyclosporin A; assay type: ADME, tissue-based; settings: in vivo
Liver [41] = experiment: Drug uptake in Wistar rat liver assessed as liver uptake index at 0.2 mg/kg, iv in presence of cyclosporin A; assay type: ADME, organism-based; parameters: dose 0.2 mg/kg, route intravenous; settings: in vivo
Hepatocyte [42] = experiment: Cellular uptake in Wistar rat hepatocytes at 2.5 uM in presence of TEA; assay type: ADME, cell-based
OATP1B1 = experiment: Efflux ratio of permeability from basolateral to apical side to apical to basolateral side in MDCK2 cells expressing OATP1B1 (unknown origin) at 1 uM after 30 to 180 mins by LC-MS/MS analysis; assay type: ADME, cell-based, Canis lupus familiaris, MDCK-II; settings: dog, MDCK
OATP1B1/MRP2 = experiment: Efflux ratio of permeability from basolateral to apical side to apical to basolateral side in MDCK2 cells expressing OATP1B1/MRP2 (unknown origin) at 1 uM after 30 to 180 mins by LC-MS/MS analysis; assay type: ADME, cell-based, Canis lupus familiaris, MDCK-II; settings: dog

For `C[C@H]1O[C@@H](O[C@H]2[C@@H](O)C[C@H](O[C@H]3[C@@H](O)C[C@H](O[C@H]4CC[C@@]5(C)[C@H](CC[C@@H]6[C@@H]5C[C@@H](O)[C@]5(C)[C@@H](C7=CC(=O)OC7)CC[C@]65O)C4)O[C@@H]3C)O[C@@H]2C)C[C@H](O)[C@@H]1O` [DIGOXIN], which Drug uptake (Hepatocyte [1]) is on record?
The Drug uptake was “Active”.

With `C[C@@H]1CC[C@@]2(OC1)O[C@H]1C[C@H]3[C@@H]4CC=C5C[C@@H](O[C@@H]6O[C@H](CO)[C@@H](O[C@@H]7O[C@@H](C)[C@H](O)[C@@H](O)[C@H]7O)[C@H](O)[C@H]6O[C@@H]6O[C@@H](C)[C@H](O)[C@@H](O)[C@H]6O)CC[C@]5(C)[C@H]4CC[C@]3(C)[C@H]1[C@@H]2C` [DIOSCIN] as the compound, how does the Drug uptake (Liver [2]) read?
The Drug uptake was “Not Active”.

And the Drug uptake (Hepatocyte [3])?
Its Drug uptake is “Active”.

And the Drug uptake [4]?
Its Drug uptake is “Active”.

What about the Drug uptake (Liver [5]) of the same compound?
The Drug uptake was “Active”.

And the Drug uptake (Hepatocyte [6])?
The Drug uptake was “Active”.

What about the hepatocyte CLint [7] of the same compound?
Its hepatocyte CLint is 35 µL/min/1e6 cells.

And the Km (OATP1B3)?
Its Km is 2.08 µM.

And the Vmax [8]?
The Vmax was 730 pmol/min/mg.

And the Drug uptake (Liver [9])?
The Drug uptake was “Not Active”.

And the Drug uptake (Liver [10])?
The Drug uptake was “Active”.

And the CLint scaled [11]?
The CLint scaled was 168 mL/min/kg.

What about the pKi [12] of the same compound?
Its pKi is 5.99.

And the Drug uptake (Hepatocyte [13])?
Its Drug uptake is “Not Active”.

And the Drug uptake (Hepatocyte [14])?
Its Drug uptake is “Active”.

What about the Drug uptake (Liver [15]) of the same compound?
The Drug uptake was “Not Active”.

And the hepatic extraction ratio at 2.5 µM [16]?
Its hepatic extraction ratio at 2.5 µM is 0.074.

And the hepatic extraction ratio at 2.5 µM [17]?
Its hepatic extraction ratio at 2.5 µM is 0.15.

And the Drug uptake (Hepatocyte [18])?
The Drug uptake was “Not Active”.

What about the Drug uptake (Hepatocyte [19]) of the same compound?
The Drug uptake was “Not Active”.

And the Drug uptake (Liver [20])?
The Drug uptake was “Active”.

And the fraction unbound [21]?
The fraction unbound was 0.079.

And the fraction unbound at 2.5 µM [22]?
Its fraction unbound at 2.5 µM is 0.061.

And the Drug uptake [23]?
Its Drug uptake is “Active”.

What about the Vmax (Hepatocyte [24]) of the same compound?
The Vmax was 588 pmol/min.

And the LUI (Liver [25])?
The LUI was 5.5%.

What about the pKi [26] of the same compound?
The pKi was 5.84.

And the Drug uptake [27]?
Its Drug uptake is “Active”.

And the Drug uptake (Hepatocyte [28])?
The Drug uptake was “Active”.

And the pKi [29]?
Its pKi is 5.08.

And the pKi [30]?
Its pKi is 5.34.

What about the hepatic extraction ratio at 2.5 µM [31] of the same compound?
The hepatic extraction ratio at 2.5 µM was 0.082.

What about the clearance [32] of the same compound?
Its clearance is 3.86 mL/min/kg.

What about the blood plasma ratio at 5 min, 2.5 µM [33] of the same compound?
The blood plasma ratio at 5 min, 2.5 µM was 0.771.

And the Drug uptake (Liver [34])?
The Drug uptake was “Active”.

What about the Drug uptake (HEK293) of the same compound?
The Drug uptake was “Active”.

And the Drug uptake (Hepatocyte [35])?
The Drug uptake was “Not Active”.

What about the Km at up to 2.5 µM [36] of the same compound?
Its Km at up to 2.5 µM is 3.75 µM.

And the Drug uptake (Hepatocyte [37])?
Its Drug uptake is “Not Active”.

And the LUI (Liver [38])?
Its LUI is 11.9%.

And the Drug uptake (Liver [39])?
Its Drug uptake is “Not Active”.

And the Drug uptake (Liver [40])?
Its Drug uptake is “Not Active”.

And the LUI (Liver [41])?
The LUI was 6.9%.

What about the Drug uptake (Hepatocyte [42]) of the same compound?
Its Drug uptake is “Active”.

For `C[C@]12CC[C@@H]3c4ccc(OS(=O)(=O)O)cc4CC[C@H]3[C@@H]1CCC2=O` [ESTRONE SULFURIC ACID], which efflux ratio at 1 µM (OATP1B1) is on record?
Its efflux ratio at 1 µM is 2.8.

And the efflux ratio at 1 µM (OATP1B1/MRP2)?
Its efflux ratio at 1 µM is 4.2.
